According to patent publication US10202391B2, “Chemical compounds” (AstraZeneca AB, priority 2015, dated 2019):

Assays:
ERK2 = target: T1, ERK2 (Homo sapiens, UniProt P28482); experiment: ERK2 Rapidfire Mass Spectrometry Inhibition of Catalysis Assay; format: biochemical; conditions: 1.2 nM ERK2, 16 μM Erktide, 120 μM ATP (measured Km), 15 minute pre-incubation; read-out: ERK2 Mass Spectrometry Enzyme IC50
T1 construct: made in house
Experimental: (§1) All compounds or DMSO (dimethyl sulphoxide) for the ERK2 Mass Spectrometry and A375 phospho-p90RSK assays were dispensed from source plates containing compounds at 10 mM in 100% (v/v) DMSO or 100% DMSO, directly into assay plates using an Echo 555 Acoustic dispenser (Labcyte Inc™). Depending on the assay, two separate plate preparations were followed. In Workflow A, 10 mM compound stocks were diluted 1:100 using a fixed-tip 96-head Agilent VPrep liquid handler (Agilent Technologies, Santa Clara, Calif.) to give four intermediate dilutions (10 mM, 100 μM, 1 μM, 10 nM). In Workflow B, 10 mM compound stocks were diluted 1:10 using a Tecan Freedom Evo (Tecan Group Ltd., Switzerland), and then 1:100 using the Echo 555 and Labcyte LX to produce three intermediate dilutions across three Labcyte qualified source plates (1 mM, 10 μM, 100 nM). These intermediate dilution plates were then used by the Echo 555 to generate final assay-ready compound plates with a 12 point dose range (10, 3, 1, 0.25, 0.1, 0.03, 0.01, 0.0025, 0.001, 0.0003, 0.0001, 0.0000125 μM) in order to calculate compound IC50s, with a total DMSO concentration in the assay of 1%. For the ERK2 Mass Spectrometry assay Workflow B was used. For the A375 phospho-p90RSK cell assay, the intermediate 1:100 dilution plate described in Workflow A was used by the Echo to dispense compounds and DMSO directly into the cell plates with a 12 point dose range (30, 10, 3.125, 1.25, 0.3, 0.1, 0.03125, 0.0125, 0.003, 0.001, 0.0003125, 0.00003 μM) in order to calculate compound IC50's, with a total DMSO concentration in the assay of 0.3%.
ERK2 Rapidfire Mass Spectrometry Inhibition of Catalysis Assay
MEK U911-activated ERK2 protein was expressed and purified in-house. Enzyme and substrate solutions were made up in assay buffer consisting of 50 mM Tris (pH 7.5), 10 mM MgCl2, 0.1 mM EGTA (ethylene glycol tetraacetic acid), 10 mM DTT (dithiothreitol) and 0.01% (v/v) CHAPS (3-[(3-Cholamidopropyl)dimethylammonio]-1-propanesulfonate). 1.2 nM ERK2 protein was prepared in assay buffer and 10 μl was dispensed into each well of a polypropylene, 384-well plate (#781201, Greiner) containing test and reference control compounds. […] The reaction was allowed to progress for 20 minutes at room temperature before being quenched by the addition of 80 al 1% (v/v) formic acid. The assay plates were then run on the RapidFire Mass Spectrometry platform (Agilent) to measure substrate (unphosphorylated Erktide) and product (phosphorylated Erktide) levels. Data was analysed and IC50's (half maximal inhibitory concentration) were calculated using Genedata Screener® software.

[1] = tested on: phospho-p90RSK in A375 cell line; experiment: A375 Phospho-p90RSK Cellular Assay; format: cell-based, human; conditions: Homo sapiens, A375 cells, 2 hours incubation
Experimental: as §1
A375 Phospho-p90RSK Cellular Assay
A375 cells were cultured in cell media composed of DMEM (Dulbecco's modified Eagle's medium), 10% (v/v) Foetal Calf Serum and 1% (v/v) L-Glutamine. After harvesting, cells were dispensed into black, 384-well Costar plates (#3712, Corning) to give 2400 cells per well in a total volume of 40 μl cell media, and were incubated overnight at 37° C., 90% relative humidity and 5% CO2 in a rotating incubator. Test compounds and reference controls were dosed directly into the cell plates using a Labcyte Echo 555 acoustic dispenser. The cell plates were then incubated for 2 hours at 37° C. before being fixed by the addition of 20 μl 12% formaldehyde in PBS/A (4% final concentration), followed by a 20 minute room temperature incubation, and then a 2× wash with 150 μl PBS/A (phosphate buffered saline containing albumin) using a BioTek ELx405 platewasher. Cells were permeabilised with 20 μl 0.1% Triton X-100 in PBS/A for 20 minutes at room temperature, and then washed 1× with 100 μl PBS/A. Primary phospho-p90RSK (Thr359) (D1E9) rabbit monoclonal antibody (#8753, Cell Signaling Technology) was diluted 1:1000 in assay buffer (0.05% (v/v) Tween, 5% (v/v) Foetal Calf Serum, in PBS/A), 20 μl added per well, and plates were incubated at 4° C. overnight. Cell plates were washed 2× with 200 μl PBS/T (phosphate buffered saline containing Tween-20), then 20 μl 1:500 dilution in assay buffer of Alexa Fluor® 647 goat anti-rabbit IgG secondary antibody (#A31573, Molecular Probes, Life Technologies), with a 1:5000 dilution of Hoechst 33342, was added per well. Following a 90 minute incubation at room temperature, plates were washed 2× with 200 μl PBS/T, and 40 μl PBS/A was added per well. Stained cell plates were covered with black lid seals, and then read on a Cellomics ArrayScan™ VTI imaging platform (Thermo Scientific), using an XF53 filter with 10× objective, with a LED light source set-up to analyse nuclear staining with Hoechst 33342 (405 nm) and secondary antibody staining of phospho-p90RSK (647 nm). Data was analysed and IC50's were calculated using Genedata Screener® software.

T1 sequence (P28482 whole entry): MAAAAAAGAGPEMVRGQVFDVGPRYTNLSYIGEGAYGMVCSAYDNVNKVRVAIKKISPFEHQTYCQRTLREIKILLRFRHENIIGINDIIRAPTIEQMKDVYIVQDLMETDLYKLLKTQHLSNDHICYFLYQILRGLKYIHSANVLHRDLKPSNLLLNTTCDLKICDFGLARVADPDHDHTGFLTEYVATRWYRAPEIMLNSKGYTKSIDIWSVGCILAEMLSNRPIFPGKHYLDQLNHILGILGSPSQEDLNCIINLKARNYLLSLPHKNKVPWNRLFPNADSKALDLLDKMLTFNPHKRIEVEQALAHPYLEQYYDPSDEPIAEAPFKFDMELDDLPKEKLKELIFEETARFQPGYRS

Structure (SMILES)	IC50 (ERK2)	IC50 ([1]; A-375)	IC50 ([1]; A-375, 2 h)
Cc1cnc(Nc2ccnn2C)nc1-c1cn2c(n1)C(=O)N(Cc1cccc(C(F)(F)F)n1)CC2 [Example 5, 2-(5-Methyl-2-((1-methyl-1H-pyrazol-5-yl)amino)pyrimidin-4-yl)-7-((6-(trifluoromethyl)pyridin-2-yl)methyl)-6,7-dihydroimidazo[1,2-a]pyrazin-8(5H)-one]	2 nM	110 nM	–
Cc1cnc(Nc2ccnn2C)nc1-c1cn2c(n1)C(=O)N(Cc1cc(C(F)(F)F)ncn1)[C@@H](C)C2 [Example 32, (S)-6-Methyl-2-(5-methyl-2-((1-methyl-1H-pyrazol-5-yl)amino)pyrimidin-4-yl)-7-((6-(trifluoromethyl)pyrimidin-4-yl)methyl)-6,7-dihydroimidazo[1,2-a]pyrazin-8(5H)-one]	0.9 nM	99 nM	–
C[C@H]1Cn2cc(-c3nc(Nc4ccnn4C)ncc3Cl)nc2C(=O)N1Cc1ccc(F)c(F)c1 [Example 6, (S)-2-(5-Chloro-2-((1-methyl-1H-pyrazol-5-yl)amino)pyrimidin-4-yl)-7-(3,4-difluorobenzyl)-6-methyl-6,7-dihydroimidazo[1,2-a]pyrazin-8(5H)-one]	0.6 nM	25 nM	–
C[C@H]1Cn2cc(-c3ccnc(Nc4ccnn4C)n3)nc2C(=O)N1Cc1ccc(F)c(Cl)c1 [Example 3, (S)-7-(3-Chloro-4-fluorobenzyl)-6-methyl-2-(2-((1-methyl-1H-pyrazol-5-yl)amino)pyrimidin-4-yl)-6,7-dihydroimidazo[1,2-a]pyrazin-8(5H)-one]	0.5 nM	81 nM	–
Cc1cnc(Nc2ccnn2C)nc1-c1cn2c(n1)C(=O)N(Cc1cc(C(F)F)ccn1)[C@@H](C)C2 [Example 31, (S)-7-((4-(Difluoromethyl)pyridin-2-yl)methyl)-6-methyl-2-(5-methyl-2-((1-methyl-1H-pyrazol-5-yl)amino)pyrimidin-4-yl)-6,7-dihydroimidazo[1,2-a]pyrazin-8(5H)-one]	0.8 nM	140 nM	–
C[C@H]1Cn2cc(-c3nc(Nc4ccnn4C)ncc3Cl)nc2C(=O)N1Cc1cccc(C(F)(F)F)n1 [Example 10]	1.1 nM	55 nM	–
Cc1cnc(Nc2ccnn2C)nc1-c1cn2c(n1)C(=O)N(Cc1ccnc(C(F)(F)F)c1)[C@@H](C)C2 [Example 30, (S)-6-Methyl-2-(5-methyl-2-((1-methyl-1H-pyrazol-5-yl)amino)pyrimidin-4-yl)-7-((2-(trifluoromethyl)pyridin-4-yl)methyl)-6,7-dihydroimidazo[1,2-a]pyrazin-8(5H)-one]	0.7 nM	200 nM	–
COC[C@H]1Cn2cc(-c3nc(Nc4ccnn4C)ncc3C)nc2C(=O)N1Cc1cccc(C(F)(F)F)n1 [Example 39, (R)-6-(Methoxymethyl)-2-(5-methyl-2-((1-methyl-1H-pyrazol-5-yl)amino)pyrimidin-4-yl)-7-((6-(trifluoromethyl)pyridin-2-yl)methyl)-6,7-dihydroimidazo[1,2-a]pyrazin-8(5H)-one]	1.8 nM	70 nM	–
Cc1cnc(Nc2ccnn2C)nc1-c1cn2c(n1)C(=O)N(Cc1cccc(Cl)c1)CC2 [Example 13, 7-(3-Chlorobenzyl)-2-(5-methyl-2-((1-methyl-1H-pyrazol-5-yl)amino)pyrimidin-4-yl)-6,7-dihydroimidazo[1,2-a]pyrazin-8(5H)-one]	0.3 nM	–	12 nM
Cc1cnc(Nc2ccnn2C)nc1-c1cn2c(n1)C(=O)N(Cc1cc(F)cc(F)c1)[C@@H](C)C2 [Example 22, (S)-7-(3,5-Difluorobenzyl)-6-methyl-2-(5-methyl-2-((1-methyl-1H-pyrazol-5-L)amino)pyrimidin-4-yl)-6,7-dihydroimidazo[1,2-a]pyrazin-8(5H)-one]	0.8 nM	19 nM	–
COc1cccc(CN2C(=O)c3nc(-c4nc(Nc5ccnn5C)ncc4Cl)cn3C[C@@H]2C)c1 [Example 7, (S)-2-(5-Chloro-2-((1-methyl-1H-pyrazol-5-yl)amino)pyrimidin-4-yl)-7-(3-methoxybenzyl)-6-methyl-6,7-dihydroimidazo[1,2-a]pyrazin-8(5H)-one]	0.5 nM	38 nM	–
Cc1cnc(Nc2ccnn2C)nc1-c1cn2c(n1)C(=O)N(Cc1cccc(C(F)F)n1)[C@@H](C)C2 [Example 25, (S)-7-((6-(Difluoromethyl)pyridin-2-yl)methyl)-6-methyl-2-(5-methyl-2-((1-methyl-1H-pyrazol-5-yl)amino)pyrimidin-4-yl)-6,7-dihydroimidazo[1,2-a]pyrazin-8(5H)-one]	0.7 nM	130 nM	–
COC[C@H]1Cn2cc(-c3nc(Nc4ccnn4C)ncc3C)nc2C(=O)N1Cc1cc(F)cc(F)c1 [Example 40, (R)-7-(3,5-difluorobenzyl)-6-(methoxymethyl)-2-(5-methyl-2-((1-methyl-1H-pyrazol-5-yl)amino)pyrimidin-4-yl)-6,7-dihydroimidazo[1,2-a]pyrazin-8(5H)-one]	1.1 nM	32 nM	–
COC[C@H]1Cn2cc(-c3nc(Nc4ccnn4C)ncc3C)nc2C(=O)N1Cc1cccc(C(F)F)c1 [Example 38, (R)-7-(3-(Difluoromethyl)benzyl)-6-(methoxymethyl)-2-(5-methyl-2-((1-methyl-1H-pyrazol-5-yl)amino)pyrimidin-4-yl)-6,7-dihydroimidazo[1,2-a]pyrazin-8(5H)-one]	0.7 nM	8 nM	–
Cc1cnc(Nc2ccnn2C)nc1-c1cn2c(n1)C(=O)N(Cc1cccc(C(F)F)c1)CC2 [Example 14, 7-(3-(Difluoromethyl)benzyl)-2-(5-methyl-2-((1-methyl-1H-pyrazol-5-yl)amino)pyrimidin-4-yl)-6,7-dihydroimidazo[1,2-a]pyrazin-8(5H)-one]	0.3 nM	24 nM	–
Cc1cnc(Nc2ccnn2C)nc1-c1cn2c(n1)C(=O)N(Cc1cc(C(F)(F)F)ccn1)[C@@H](C)C2 [Example 29, (S)-6-Methyl-2-(5-methyl-2-((1-methyl-1H-pyrazol-5-yl)amino)pyrimidin-4-yl)-7-((4-(trifluoromethyl)pyridin-2-yl)methyl)-6,7-dihydroimidazo[1,2-a]pyrazin-8(5H)-one]	0.9 nM	130 nM	–
C[C@H]1Cn2cc(-c3ccnc(Nc4ccnn4C)n3)nc2C(=O)N1Cc1cccc(Cl)c1 [Example 2, (S)-7-(3-Chlorobenzyl)-6-methyl-2-(2-((1-methyl-1H-pyrazol-5-yl)amino)pyrimidin-4-yl)-6,7-dihydroimidazo[1,2-a]pyrazin-8(5H)-one]	0.7 nM	86 nM	–
